From patent US7803571B2, “Method for identifying IRS inhibitors or agonists” (Sanfoi-Aventis Deutschland GmbH, priority 2003, dated 2010)

Assays:
Format in all cases: biochemical
PKC = assay: Phosphorylation of IRS-1 serine 612 by PKC, immunoblot with phosphoserine 612 antibody; conditions: PKC from rat brain and PKC-ζ, 30 min at 30° C.
Experimental: (A) 0.5 μg of rIRS-1^449-664 was incubated with 0.5 μg of the different PKCs for 30 min at 30° C. and immunoblotted with an antibody against phosphoserine 612. A representative experiment is shown. (B) Binding of p85α to immobilized peptides corresponding to the IRS-1 amino acids 605 to 615 with phosphotyrosine 608 or (C) without phosphotyrosine using surface plasmon resonance (pY608 -DDGpYMPMSPGV and Y608 -DDGYMPMSPGV). Protein concentrations of p85α used were (from bottom to top): 1, 5,10, 25, 50,100, 250, 500 nM. (D) Inhibition of p85α binding by competition with soluble peptides pY608-DDGpYMPMSPGV or (E) pY608-pS612-DDGpYMPMpSPGV. The soluble peptides were also immobilized on the chip. (F) Half-maximum inhibitory concentrations (IC50) were obtained by plotting the SPR response at equilibrium (440 s after injection) versus the log peptide concentration.
The inventors assessed modification of this site by PKC using a specific IRS-1 phosphoserine 612 antibody (αpS^612).

insulin receptor = target: T1, insulin receptor (Rattus norvegicus, UniProt P15127); assay: In vitro phosphorylation assay: tyrosine phosphorylation of rIRS-1^449-664 by insulin receptor; conditions: BIM added for 10 min before substrate phosphorylation by IR
T1 construct: from tissue; host or cells: rat liver
Experimental: Rat liver was rapidly removed, immediately frozen in liquid nitrogen and processed as described (41). Briefly, 3.5 vol/wt of an ice-cold buffer consisting of 50 mM Hepes (pH 7.4), 1% Triton X-100 and 2× Complete Protease Inhibitors was added and the liver was homogenized using an Ultraturrax and a Potter-Elvehjem homogenizer, followed by centrifugation at 10,000×g for 10 min at 4° C. The resultant supernatant was slowly stirred at room temperature for 60 min, then again centrifuged at 100,000×g for 90 min at 4° C. The supernatant was then applied to an agarose-bound wheat germ agglutinin (WGA) column. The column was washed with 50 mM Hepes (pH 7.4), 0.1% Triton X-100, and bound glycoproteins were eluted from the WGA column with this buffer containing 0.3 M N-acetylglucoseamine.
(§1) For rIRS-1^449-664 phosphorylation by insulin receptor, […] of the WGA-purified glycoprotein fraction was preincubated for 30 min at 30° C. with 100 nM of insulin in a phosphorylation buffer containing 20 mM Hepes (pH 7.4), 1 mM DTT, 10 mM MgCl2, 100 μg/ml bovine serum albumin, 0.2 mM Na3VO4, 1.7 mM CaCl2, 0.6 mg/ml phosphatidylserine, and 0.5 μg/ml okadaic acid. Autophosphorylation was initiated by the addition of ATP at a concentration of 50 μM and continued for 10 min at 30° C. Substrate phosphorylations were initiated by addition of equal volumes of […] (1 μg) with or without pre-treatment (30 min) by the PKC isoforms in the same buffer in the presence of 50 μM ATP and was allowed to proceed for 10 min at 30° C. in a final volume of 50 μl. The reaction was terminated by the addition of 6× sample buffer (0.35 M Tris-HCl (pH 6.8), 10.28% (w/v) SDS, 36% (v/v) glycerol; 0.6 M DTT, 0.012% (w/v) bromphenol blue) and boiling for 5 min. Proteins were separated by SDS-PAGE and analyzed by immunodetection with an anti-phosphotyrosine antibody after transfer to nitrocellulose. Serine/threonine phosphorylation of rIRS-1^449-664 by different PKC isoforms was assessed by incubating 1 μg rIRS-1^449-664 with 0.5 μg PKC-rb or PKC-ζ in phosphorylation buffer for 30 min at 30° C. in the presence of 50 μM ATP plus 2 μCi [γ-^32P]ATP in a volume of 20 μl. Proteins were resolved by SDS-PAGE and the stained and dried gels were subjected to autoradiography. The extent of phosphate incorporation was determined by Cerenkov counting of excised fragments.
Proteins were separated by SDS-PAGE using 8-18% gradient gels followed by transfer to nitrocellulose in a semi-dry blotting apparatus. […] All blots were quantified using the Lumilmager software. Significance of reported differences was evaluated by using the null hypothesis and t statistics for unpaired data. […]

[1] = system: PKC from rat brain (PKC-rb); assay: Serine/threonine phosphorylation of rIRS-1^449-664 by PKC from rat brain ([32P]ATP, autoradiography); conditions: 0.5 μg PKC-rb, 1 μg rIRS-1^449-664, 50 μM ATP
Experimental: as §1, with “The reaction was terminated by the addition of 6× sample buffer (0.35 M Tris-HCl (pH 6.8), 10.28% (w/v) SDS, 36% (v/v) glycerol; 0.6 M DTT, 0.012% (w/v) bromphenol blue) and boiling for 5 min.” left out, “Proteins were resolved by SDS-PAGE and the stained and dried gels were subjected to autoradiography.” left out, “fragments. […]” for “fragments.”

T1 sequence (P15127 27-759 limits assumed): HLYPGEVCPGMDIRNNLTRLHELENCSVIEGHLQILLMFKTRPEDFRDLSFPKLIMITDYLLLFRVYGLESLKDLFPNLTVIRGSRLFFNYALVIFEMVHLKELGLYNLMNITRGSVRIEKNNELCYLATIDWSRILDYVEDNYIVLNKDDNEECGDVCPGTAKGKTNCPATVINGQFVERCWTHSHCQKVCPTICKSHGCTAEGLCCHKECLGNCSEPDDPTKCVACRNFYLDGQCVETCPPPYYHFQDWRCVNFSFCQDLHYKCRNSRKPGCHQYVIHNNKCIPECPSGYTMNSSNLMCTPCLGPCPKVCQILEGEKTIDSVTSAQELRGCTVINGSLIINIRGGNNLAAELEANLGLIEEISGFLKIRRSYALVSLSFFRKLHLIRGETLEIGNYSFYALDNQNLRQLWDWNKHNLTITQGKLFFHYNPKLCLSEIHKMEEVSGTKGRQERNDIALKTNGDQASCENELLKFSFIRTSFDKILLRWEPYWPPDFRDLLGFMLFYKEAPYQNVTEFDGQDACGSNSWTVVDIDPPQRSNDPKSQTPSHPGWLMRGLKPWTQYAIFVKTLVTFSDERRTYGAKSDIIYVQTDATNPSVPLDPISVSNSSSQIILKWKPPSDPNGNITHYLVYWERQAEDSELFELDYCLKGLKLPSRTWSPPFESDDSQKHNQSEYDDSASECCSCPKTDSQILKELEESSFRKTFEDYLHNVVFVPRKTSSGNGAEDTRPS

## CN(C)CCCn1cc(C2=C(c3c[nH]c4ccccc34)C(=O)NC2=O)c2ccccc21 [BIM, bisindolylmaleimide I]
PKC
  Phosphorylation of serine 612 of rIRS-1^449-664 by PKC in the presence of inhibitor: clearly prevented the phosphorylation of this serine
Insulin receptor
  Effect of inhibiting PKC-rb after phosphorylation of rIRS-1^449-664 on the reduced tyrosine phosphorylation and p85α association: did not modify this result
[1]
  Phosphorylation of rIRS-1^449-664 by PKC-rb in the presence of inhibitor: inhibited
